In one assay the target is T1, CDK1:Cyclin-B (Homo sapiens, UniProt P06493).
T1 construct: purchased New England Biolabs, Beverly, Mass; 6020; host or cells: insect cells
Put plainly: CDK1 Screening Assay. As to conditions: 33P-γ-ATP incorporation, 10 μM ATP. It is filed as biochemical. Put shortly: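 Human CDK1/cyclin B co-expressed in insect cells (30 ng/well) in 50 mM Tris pH 8, 10 mM MgCl2, with 10 μM ATP, 33P-γ-ATP and 0.025 μM biotinylated histone H1 peptide (reaction-mix levels); 1% DMSO final. 1 h at 30° C. 33P incorporation into streptavidin-captured peptide by scintillation counting.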

In another assay the target is T2, VEGF-R2 (Rattus norvegicus, UniProt O08775).
T2 construct: polyhistidine (N)
T2 sequence (O08775 786-1343): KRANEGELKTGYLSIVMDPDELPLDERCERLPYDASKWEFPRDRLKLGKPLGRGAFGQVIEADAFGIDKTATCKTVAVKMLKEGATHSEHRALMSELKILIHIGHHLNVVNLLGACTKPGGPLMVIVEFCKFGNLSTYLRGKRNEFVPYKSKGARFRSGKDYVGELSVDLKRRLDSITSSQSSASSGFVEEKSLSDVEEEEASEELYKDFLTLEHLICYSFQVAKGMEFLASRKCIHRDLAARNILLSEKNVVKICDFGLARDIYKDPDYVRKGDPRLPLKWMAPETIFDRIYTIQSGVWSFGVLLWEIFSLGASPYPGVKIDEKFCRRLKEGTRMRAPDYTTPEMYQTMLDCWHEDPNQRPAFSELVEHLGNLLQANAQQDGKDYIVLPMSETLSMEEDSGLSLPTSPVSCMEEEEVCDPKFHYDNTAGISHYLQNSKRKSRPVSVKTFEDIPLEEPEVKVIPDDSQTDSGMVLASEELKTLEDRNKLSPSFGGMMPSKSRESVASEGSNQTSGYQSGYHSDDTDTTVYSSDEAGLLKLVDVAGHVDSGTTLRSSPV
Put plainly: VEGF-R2 Screening Assay. As to conditions: 33P-γ-ATP incorporation, 10 μM ATP. It is filed as biochemical. The method, boiled down: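 The N-terminally His-tagged rat VEGF-R2 kinase domain (aa 786-1343), diluted in 50 mM Tris-HCl pH 8.0 with 0.1% BSA, phosphorylated a biotinylated histone-H1 peptide with 33P-γ-ATP on Flashplates for 1 h at 30 °C in 1% DMSO. After washes with EDTA/PBS, immobilized 33P was counted by scintillation.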

Another assay concerns the target T3, Aurora-A (Mus musculus, UniProt P97477).
T3 construct: made in house; host or cells: sf9 insect cells
T3 sequence (P97477 1-395): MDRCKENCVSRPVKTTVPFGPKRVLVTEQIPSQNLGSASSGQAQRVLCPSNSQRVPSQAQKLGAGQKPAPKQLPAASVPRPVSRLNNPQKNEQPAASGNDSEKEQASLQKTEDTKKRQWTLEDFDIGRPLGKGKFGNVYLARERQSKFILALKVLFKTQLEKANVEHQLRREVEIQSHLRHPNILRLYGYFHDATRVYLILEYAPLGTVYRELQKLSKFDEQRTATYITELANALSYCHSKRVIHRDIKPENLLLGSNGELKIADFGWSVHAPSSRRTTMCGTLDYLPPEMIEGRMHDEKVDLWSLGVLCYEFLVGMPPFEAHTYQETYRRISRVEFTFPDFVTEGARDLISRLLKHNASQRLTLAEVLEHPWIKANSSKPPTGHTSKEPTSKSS
Put plainly: Aurora-A Screening Assay. The assay is classed as biochemical, murine. As to conditions: 33P-γ-ATP incorporation, 10 μM ATP.

The target in the next assay is T4, RET (Homo sapiens, UniProt P07949).
T4 construct: the RET cytoplasmic domain consisting of the last 492 amino acids of the intracellular domain of the RET tyrosine kinase; histidine tag (N); made in house; host or cells: Hi5 insect cells
T4 sequence (P07949 658-1114 limits assumed): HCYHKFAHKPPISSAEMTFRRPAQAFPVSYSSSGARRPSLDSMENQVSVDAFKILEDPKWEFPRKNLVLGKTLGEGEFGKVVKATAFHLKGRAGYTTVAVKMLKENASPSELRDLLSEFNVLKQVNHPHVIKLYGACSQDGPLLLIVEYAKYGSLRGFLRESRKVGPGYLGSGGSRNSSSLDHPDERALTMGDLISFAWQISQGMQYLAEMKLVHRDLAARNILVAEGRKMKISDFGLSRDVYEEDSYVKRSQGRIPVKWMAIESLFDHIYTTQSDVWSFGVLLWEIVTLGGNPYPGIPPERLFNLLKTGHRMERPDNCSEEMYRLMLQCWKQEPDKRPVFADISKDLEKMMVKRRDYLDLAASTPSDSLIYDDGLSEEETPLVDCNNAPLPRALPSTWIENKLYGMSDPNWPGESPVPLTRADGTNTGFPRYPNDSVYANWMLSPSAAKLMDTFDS
Put plainly: RET Kinase Screening Assay. The assay is classed as biochemical. As to conditions: 33P-γ-ATP incorporation, 10 μM ATP.

Assay [1] has as its system HeLa cervical adenocarcinoma. Put plainly: Inhibition of cell proliferation (14C-thymidine incorporation), HeLa.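 Further: HeLa cells in 96-well scintillating plates, compound for 24 h then 24 h more with 14C-thymidine, counting label built into new DNA against DMSO-only control wells.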 It is filed as cell-based. As to conditions: Homo sapiens. For orientation: Dividing cells build labelled thymidine or BrdU into new DNA.
The test system of a further assay is HCT-116 colon carcinoma. Put plainly: Inhibition of cell proliferation (14C-thymidine incorporation), HCT-116. The assay is classed as cell-based. As to conditions: Homo sapiens, HCT-116, HCT116. Put shortly: (§1)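 Cells (3000-8000/well) grown 24 h at 37° C, 5% CO2, then given compound in DMSO for 24 h before adding methyl 14C-thymidine (0.2 uCi/well) for a further 24 h with drug. After PBS washes, incorporation into DNA counted by scintillation.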

The subject of the next assay is A375 malignant melanoma. Put plainly: Inhibition of cell proliferation (14C-thymidine incorporation), A375. The assay is classed as cell-based, human. As to conditions: Homo sapiens, A-375. The method, boiled down:
as §1

A word on the IC50: it is the midpoint of a concentration-inhibition curve. The low end stands for inhibition by little substance, the high end for a need for much substance.

T1 sequence (P06493 whole entry): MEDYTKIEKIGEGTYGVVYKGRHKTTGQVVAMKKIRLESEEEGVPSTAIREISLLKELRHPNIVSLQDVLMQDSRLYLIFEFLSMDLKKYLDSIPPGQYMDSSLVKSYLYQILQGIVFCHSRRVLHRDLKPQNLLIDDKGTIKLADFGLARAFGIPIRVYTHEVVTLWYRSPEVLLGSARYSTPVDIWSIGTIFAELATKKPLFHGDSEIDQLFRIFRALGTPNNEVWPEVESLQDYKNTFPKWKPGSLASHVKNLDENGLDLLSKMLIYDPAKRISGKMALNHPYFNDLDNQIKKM
T1 sequence (P14635 whole entry partner): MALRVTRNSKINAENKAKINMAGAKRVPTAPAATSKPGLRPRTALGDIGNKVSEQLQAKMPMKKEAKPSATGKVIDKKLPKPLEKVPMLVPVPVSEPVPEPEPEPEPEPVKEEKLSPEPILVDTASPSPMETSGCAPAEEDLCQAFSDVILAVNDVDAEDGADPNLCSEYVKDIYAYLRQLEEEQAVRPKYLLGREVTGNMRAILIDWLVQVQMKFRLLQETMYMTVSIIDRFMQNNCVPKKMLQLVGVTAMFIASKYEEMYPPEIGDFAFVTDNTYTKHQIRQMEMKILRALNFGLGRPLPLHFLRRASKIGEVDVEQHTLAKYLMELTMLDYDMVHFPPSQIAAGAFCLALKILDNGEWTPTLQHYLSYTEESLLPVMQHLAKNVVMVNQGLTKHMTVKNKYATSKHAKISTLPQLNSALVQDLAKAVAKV

Consider `CCOc1ccc(Nc2nccc(-c3c[nH]c4ncccc34)n2)cc1` [Cpd 40, (4-Ethoxyphenyl)-[4-(1H-pyrrolo[2,3-b]pyridin-3-yl)-pyrimidin-2-yl]-amine], for which the IC50 on CDK1:Cyclin-B stood at 0.01 µM; on VEGF-R2, 0.149 µM; against Aurora-A it was 0.084 µM; against RET, 1 µM; in assay [1] it was 0.0662 µM; with HCT-116 colon carcinoma it was 0.0244 µM. In the assay with A375 malignant melanoma, this molecule registered a concentration for half-maximal inhibition (IC50) of 0.0565 µM.
With `Cc1cccc(C)c1Nc1nccc(-c2c[nH]c3ncccc23)n1` [Cpd 35, (2,6-Dimethylphenyl)-[4-(1H-pyrrolo[2,3-b]pyridin-3-yl)-pyrimidin-2-yl]-amine], the half-maximal inhibitory concentration (IC50) was 0.017 µM against CDK1:Cyclin-B; 0.975 µM at VEGF-R2; 0.556 µM against Aurora-A; 1 µM on RET; 0.0903 µM in assay [1]; 0.0331 µM with HCT-116 colon carcinoma. Besides, the concentration for half-maximal inhibition (IC50) in the assay with A375 malignant melanoma was found to be 0.0369 µM.
`Cc1cc(O)ccc1Nc1nccc(-c2c[nH]c3ncccc23)n1` [Cpd 79, 3-Methyl-4-[4-(1H-pyrrolo[2,3-b]pyridin-3-yl)-pyrimidin-2-ylamino]-phenol]: the concentration for half-maximal inhibition (IC50) against CDK1:Cyclin-B was found to be 0.000764 µM; against VEGF-R2, 0.927 µM; on Aurora-A, 0.119 µM; against RET, 4.82 µM; in assay [1], 0.0059 µM; in the assay with HCT-116 colon carcinoma, 0.00492 µM. Besides, half-maximal inhibition in the assay with A375 malignant melanoma (IC50) required 0.00858 µM.
With `Clc1cc(CCN2CCOCC2)ccc1Nc1nccc(-c2c[nH]c3ncccc23)n1` [Cpd 56, {2-Chloro-4-[2-(morpholin-4-yl)ethyl]phenyl}-[4-(1H-pyrrolo[2,3-b]pyridin-3-yl)-pyrimidin-2-yl]-amine], the IC50 against CDK1:Cyclin-B came to 0.105 µM; on VEGF-R2, 1.04 µM; against Aurora-A it was 0.859 µM; against RET, 1.24 µM; in assay [1], 1.1 µM; with HCT-116 colon carcinoma, 0.774 µM. Moreover, the half-inhibitory concentration (IC50) with A375 malignant melanoma was 0.727 µM.
Consider `CN(C)c1ccc(Nc2nccc(-c3c[nH]c4ncccc34)n2)cc1` [Cpd 38, (4-Dimethylaminophenyl)-[4-(1H-pyrrolo[2,3-b]pyridin-3-yl)-pyrimidin-2-yl]-amine], for which the IC50 against CDK1:Cyclin-B stood at 0.0096 µM; against VEGF-R2, 0.081 µM; on Aurora-A, 0.112 µM; against RET, 0.821 µM; in assay [1], 0.0358 µM; in the assay on HCT-116 colon carcinoma it was 0.0216 µM. Further, the half-maximal inhibitory concentration (IC50) in the assay on A375 malignant melanoma amounted to 0.0494 µM.
Regarding `CN1CCN(CCc2ccc(Nc3nccc(-c4c[nH]c5ncccc45)n3)c(Cl)c2)CC1` [Cpd 55, {2-Chloro-4-[2-(4-methylpiperizin-1-yl)ethyl]phenyl}-[4-(1H-pyrrolo[2,3-b]pyridin-3-yl)-pyrimidin-2-yl]-amine], the IC50 is 0.0408 µM on CDK1:Cyclin-B; 0.342 µM at VEGF-R2; 0.785 µM on Aurora-A; 1.15 µM at RET; 0.292 µM in assay [1]; 0.264 µM with HCT-116 colon carcinoma. In the assay on A375 malignant melanoma, the midpoint of inhibition, the IC50, lay at 0.233 µM.
As for `CN(C)CCc1ccc(Nc2nccc(-c3c[nH]c4ncccc34)n2)c(Cl)c1` [Cpd 54], the IC50 against CDK1:Cyclin-B came to 0.0612 µM; at VEGF-R2, 2.31 µM; against Aurora-A, 0.908 µM; at RET, 4.06 µM; in assay [1] it was 0.281 µM; in the assay with HCT-116 colon carcinoma, 0.269 µM. This molecule had an IC50 in the assay on A375 malignant melanoma of 0.215 µM.
With `c1cnc2[nH]cc(-c3ccnc(NC4CCNCC4)n3)c2c1` [Cpd 65, Piperidin-4-yl-[4-(1H-pyrrolo[2,3-b]pyridin-3-yl)pyrimidin-2-yl]-amine], the concentration for half-maximal inhibition (IC50) is 0.0603 µM at CDK1:Cyclin-B; 1.07 µM at VEGF-R2; 1.3 µM against Aurora-A; 1.23 µM against RET; 0.0269 µM in assay [1]; 0.015 µM in the assay with HCT-116 colon carcinoma. In the assay on A375 malignant melanoma, the midpoint of inhibition, the IC50, lay at 0.0218 µM.
As to `Clc1ccccc1Nc1nccc(-c2c[nH]c3ncccc23)n1` [Cpd 12, (2-Chloro-phenyl)-[4-(1H-pyrrolo[2,3-b]pyridin-3-yl)-pyrimidin-2-yl]-amine], the half-inhibitory concentration (IC50) against CDK1:Cyclin-B is 0.0092 µM; against VEGF-R2, 0.878 µM; at Aurora-A it was 0.287 µM; on RET, more than 10 µM; in assay [1], 0.14 µM; in the assay with HCT-116 colon carcinoma it was 0.16 µM. This molecule returned a concentration for half-maximal inhibition (IC50) in the assay on A375 malignant melanoma of 0.1 µM.
Regarding `Cc1ccc(Nc2nccc(-c3c[nH]c4ncccc34)n2)cc1` [Cpd 10, [4-(1H-Pyrrolo[2,3-b]pyridin-3-yl)-pyrimidin-2-yl]-p-tolyl-amine], the IC50 against CDK1:Cyclin-B is 0.04 µM; against VEGF-R2, 0.2 µM; against Aurora-A, 0.29 µM; against RET, approximately 10 µM; in assay [1], 0.22 µM; in the assay with HCT-116 colon carcinoma, 0.23 µM. The same molecule had a 50% inhibitory concentration (IC50) in the assay with A375 malignant melanoma of 0.25 µM.
As to `Cc1cccc(Nc2nccc(-c3c[nH]c4ncccc34)n2)c1C` [Cpd 34, (2,3-Dimethylphenyl)-[4-(1H-pyrrolo[2,3-b]pyridin-3-yl)-pyrimidin-2-yl]-amine], the IC50 at CDK1:Cyclin-B was 0.004 µM; at VEGF-R2, 0.618 µM; at Aurora-A, 0.238 µM; in assay [1], 0.0114 µM; in the assay on HCT-116 colon carcinoma, 0.00137 µM; in the assay with A375 malignant melanoma, 0.0157 µM.
For `Cc1cc(Br)ccc1Nc1nccc(-c2c[nH]c3ncccc23)n1` [Cpd 41, (4-Bromo-2-methylphenyl)-[4-(1H-pyrrolo[2,3-b]pyridin-3-yl)-pyrimidin-2-yl]-amine], the IC50 on CDK1:Cyclin-B was determined as 0.0063 µM; on VEGF-R2, 1.64 µM; at Aurora-A it was 0.182 µM; in assay [1], 0.0101 µM; in the assay on HCT-116 colon carcinoma, 0.0132 µM; in the assay with A375 malignant melanoma it was 0.042 µM.
Consider `Cc1cc(CCN2CCCC2)ccc1Nc1nccc(-c2c[nH]c3ncccc23)n1` [Cpd 48], for which the half-maximal inhibitory concentration (IC50) on VEGF-R2 was 0.875 µM; against Aurora-A, 0.86 µM; at RET, 3.52 µM; in assay [1], 0.00255 µM; with HCT-116 colon carcinoma, 0.00301 µM; in the assay on A375 malignant melanoma, 0.00255 µM.
With `Oc1ccccc1Nc1nccc(-c2c[nH]c3ncccc23)n1` [Cpd 30, (2-Hydroxyphenyl)-[4-(1H-pyrrolo[2,3-b]pyridin-3-yl)-pyrimidin-2-yl]-amine], the IC50 against CDK1:Cyclin-B came to 0.139 µM; on VEGF-R2 it was 0.049 µM; at Aurora-A, 0.289 µM; in assay [1], 0.956 µM; in the assay on HCT-116 colon carcinoma, 0.652 µM; in the assay on A375 malignant melanoma, 1.65 µM.
On to `c1cnc2[nH]cc(-c3ccnc(NC4CCCCCC4)n3)c2c1` [Cpd 15, Cycloheptyl-[4-(1H-pyrrolo[2,3-b]pyridin-3-yl)-pyrimidin-2-yl]-amine], for which the IC50 on CDK1:Cyclin-B worked out at 0.012 µM; at VEGF-R2, 2.11 µM; against Aurora-A, 0.166 µM; in assay [1], 0.0082 µM; in the assay with HCT-116 colon carcinoma, 0.00756 µM; in the assay on A375 malignant melanoma, 0.00467 µM.
For `CS(=O)(=O)n1cc(-c2ccnc(NC3CCCCC3)n2)c2cccnc21` [Cpd 67, Cyclohexyl-[4-(1-methanesulfonyl-1H-pyrrolo[2,3-b]pyridin-3-yl)pyrimidin-2-yl]-amine], the IC50 turned out to be 0.128 µM against CDK1:Cyclin-B; 1 µM against VEGF-R2; 2.36 µM against Aurora-A; 0.393 µM in assay [1]; 0.298 µM in the assay with HCT-116 colon carcinoma; 0.504 µM with A375 malignant melanoma.
Regarding `Cc1cc(CCN(C)C)ccc1Nc1nccc(-c2c[nH]c3ncccc23)n1` [Cpd 46], the 50% inhibitory concentration (IC50) at CDK1:Cyclin-B was 0.0016 µM; on VEGF-R2, 0.341 µM; at Aurora-A, 0.466 µM; in assay [1], 0.000963 µM; with HCT-116 colon carcinoma, 0.000545 µM; with A375 malignant melanoma it was 0.000634 µM.

Source of the values: US7855205B2, “Pyrimidinyl substituted fused-pyrrolyl compounds useful in treating kinase disorders” (Janssen Pharmaceutica NV, priority 2004, dated 2010).
